Experimental data reported in patent publication EP0361645B1, “Organic hydrazine derivatives for pharmaceutical use” (ROHM AND HAAS COMPANY, priority 1988, dated 1990).
Where two headings read alike, the source gives them in different places.

Biological target: T1, ecdysone receptor (Drosophila melanogaster, UniProt P34021)
T1 construct: endogenous in cells; host or cells: Drosophila Kr (Kc) cells, undiluted cytosolic extract
T1 sequence (P34021 1-878): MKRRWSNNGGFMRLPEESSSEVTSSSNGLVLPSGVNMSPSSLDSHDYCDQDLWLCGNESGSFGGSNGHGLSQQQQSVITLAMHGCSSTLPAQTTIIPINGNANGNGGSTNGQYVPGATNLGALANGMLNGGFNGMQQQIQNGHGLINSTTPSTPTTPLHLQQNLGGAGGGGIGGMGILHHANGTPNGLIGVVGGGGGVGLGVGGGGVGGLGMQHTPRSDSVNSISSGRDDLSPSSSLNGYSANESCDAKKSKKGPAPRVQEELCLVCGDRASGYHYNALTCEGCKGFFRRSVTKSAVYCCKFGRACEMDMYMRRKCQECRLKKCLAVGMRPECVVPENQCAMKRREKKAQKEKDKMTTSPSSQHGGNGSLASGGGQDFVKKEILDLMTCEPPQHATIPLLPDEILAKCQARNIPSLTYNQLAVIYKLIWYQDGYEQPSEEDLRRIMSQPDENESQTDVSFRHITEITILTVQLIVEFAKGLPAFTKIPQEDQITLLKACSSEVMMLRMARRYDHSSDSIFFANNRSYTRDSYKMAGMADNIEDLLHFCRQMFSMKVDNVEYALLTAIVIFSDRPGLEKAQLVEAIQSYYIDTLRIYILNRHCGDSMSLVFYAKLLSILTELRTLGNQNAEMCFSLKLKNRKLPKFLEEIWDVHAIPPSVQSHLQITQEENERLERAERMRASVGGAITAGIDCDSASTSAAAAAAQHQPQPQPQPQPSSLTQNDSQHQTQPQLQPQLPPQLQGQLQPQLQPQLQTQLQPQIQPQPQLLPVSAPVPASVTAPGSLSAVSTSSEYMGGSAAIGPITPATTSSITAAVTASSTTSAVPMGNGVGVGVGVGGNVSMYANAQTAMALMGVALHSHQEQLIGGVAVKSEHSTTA
T1 sequence (P20153 1-508 partner): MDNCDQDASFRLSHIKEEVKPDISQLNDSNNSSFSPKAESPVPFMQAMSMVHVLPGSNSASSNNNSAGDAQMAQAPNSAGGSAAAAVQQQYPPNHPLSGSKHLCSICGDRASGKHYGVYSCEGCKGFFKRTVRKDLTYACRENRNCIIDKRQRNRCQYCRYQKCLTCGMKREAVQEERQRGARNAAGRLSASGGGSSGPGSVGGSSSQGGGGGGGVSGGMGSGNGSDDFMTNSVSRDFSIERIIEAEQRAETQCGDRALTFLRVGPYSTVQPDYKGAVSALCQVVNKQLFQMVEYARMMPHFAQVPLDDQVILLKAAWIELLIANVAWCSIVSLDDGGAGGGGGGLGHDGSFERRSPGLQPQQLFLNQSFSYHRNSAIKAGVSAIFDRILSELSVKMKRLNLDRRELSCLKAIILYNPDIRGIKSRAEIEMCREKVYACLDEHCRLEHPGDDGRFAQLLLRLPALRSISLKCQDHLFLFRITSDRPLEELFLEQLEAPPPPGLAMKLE
Assay: ^3H-ponasterone A binding to / displacement from Kr cell cytosolic receptor extracts
Procedure: The invention will now be further described by way of exemplification and by reference to the drawings in which; • Figure 1. Both 20-hydroxyecdysone and Example No. 3 induce process elaboration (A) and inhibition of cell proliferation (B) in Kr cells in a dose-dependent manner. Initial cell density was 2 X 10^6 cells/ml; after incubation of 1 ml aliquots of the cells with the compound for 48 hours the cells were triturated gently and the percentage of cells responding (with processes longer than approximately 17 um, see Cherbas et al. 189 Wilhelm Roux's Arch. 1 (1980)) and total cell density was determined by hemocytom- eter counting, relative to ethanol (1 ul)-treated controls. Determinations were in triplicate for each dose. […] Induction of acetylcholinesterase by varying concentrations of 20-hydroxyecdysone and Example No. 3. Kr cells at an initial density of 3 X 10^6 cells/ml (10 ml per sample) were incubated with the agonist for three days. After harvesting, by centrifugation at 3000 X g, the cell pellets were washed with Robb's Drosophila saline (18, 2 X 5 ml) at 4 ° C, then lysed by sonication in 1 ml of phosphate buffer (pH 7.4, I = 0.1 M) containing 0.5 M NaCI, 0.25 M EDTA and 0.5% TRITON? X-100. See Cherbas, 197 Science 275 (1977). Triton is a registered trademark of Rohm and Haas Company for a alkylaryl polyoxyethylene glycol surfactant. After centrifugation at 16,000 X g, the supernatants were assayed for acetylcholinesterase activity by an adaptation of the method of Ellman et al., 7 Biochem. Pharmacol. 88 (1961), by subtracting out any 412 nm absorbance observed in incubations in the presence of 2 X 10-5 eserine sulfate. Thus reaction mixtures contained 50 ul of enzyme extract, 20 ul eserine (blank tubes only) and 1.0 ml of 0.5 mM acetylthiocholine, 0.3 mM dithiobisnitrobenzoic acid in phosphate buffer (pH 7.4, I = 0.1 M). Incubations were at 25 ° C for two hours; reactions in active tubes were terminated by addition of eserine. Absorbance at 412 nm was then measured. Protein concentration in extracts was measured by the Biorad method. […] Scatchard plot of ^3H-ponasterone A binding to Kr cell cytosolic receptor extracts in the presence of differing concentrations of Example No. 3. Cytosolic extract preparation and ecdysteroid receptor assays were essentially as described in Sage, 111 Meth. in Enzymol. 458 (1985). Example No. 3 was added in 1 ul DMSO to 50 ul of radioligand in 10 mM Tris buffer (pH 7.2) and 50 ul of undiluted cytosol extract. After incubation overnight at 0.5 ° C, bound label was separated from free by addition of 300 ul 1% HCI-washed charcoal (Sigma) and 0.1% Dextran T70 (Pharmacia) in Tris buffer, centrifugation (13,000 X g, 3 min, 4 ° C) and liquid scintillation counting of a 300 ul aliquot of the supernatant in 15 ml Hydrofluor (National Diagnostics). Points are means of duplicate determinations. […] Relative ability of 20 hydroxyecdysone and Example No. 3 to displace ^3H-ponasterone A from cytosolic receptor extracts. Conditions were as in Figure 3 except that only 0.5 nM ponasterone A was used. • Points are means of duplicate determinations. For 20-hydroxyecdysone EC50 = 0.1 uM while for Example No. 3 EC50 = 3.0 uM. Control binding = 10 femtomoles ^3H-ponasterone A bound per mg cytosol protein. • Figure 4. Effects of 10 ppm Example No. 3 administered in artificial diet to newly ecdysed fourth instar (L4) M. sexta, monitoring (A)immunoreactive hemolymph ecdysteroid titers and (B)weight gain. Ecdysteroid titers were measured by a radioimmunoassay adapted from Warren et al., 40 Experientia 393 (1984) with Protein A-Staph. aureus suspension (Sigma) used as the reagent to separate bound from free ligand. The antiecdysone antiserum was formed by reaction of 20-hydroxyecdysone with carboxymethox- yamine resulting in the corresponding ecdysteroid 6-oxime acid. […] All samples were diluted appropriately in borate buffer pH 8.0 and assayed in duplicate. […]

| Compound | IC50 (0.5 nM ponasterone A (Figure 3B legend), read-out: EC50, displacement of ^3H-ponasterone A from cytosolic receptor extracts) [nM] | fold greater apparent affinity than Example No. 3 (ratio of IC50) [fold] | IC50 [nM] | mode of inhibition of ^3H-ponasterone A binding (Kd increases, Bmax remains the same) | fold lower apparent binding affinity than 20-hydroxyecdysone (Kr cell extracts) [fold] |
| --- | --- | --- | --- | --- | --- |
| CC(C)(O)CC[C@@H](O)[C@](C)(O)[C@H]1CC[C@@]2(O)C3=CC(=O)[C@@H]4C[C@@H](O)[C@@H](O)C[C@]4(C)[C@H]3CC[C@]12C [20-hydroxyecdysone, reference compound] | 100 | 30 | – | – | – |
| CC(C)(C)N(NC(=O)c1ccccc1)C(=O)c1ccccc1 [Example No. 3, N'-t-butyl-N,N'-dibenzoylhydrazine] | – | – | 3000 | competitive mode of inhibition | 30 |
